Results published in article PMC7265341, “Quantifying CDK inhibitor selectivity in live cells” (Nature Communications, 2020).
“And” between values parts separate entries of the source, which are not always exact repeats. Equal values may be shown once.

How the values were obtained:
Type in all cases: binding
CDK6 [1] = biological target: T1, CDK6 (Homo sapiens, UniProt Q00534); test: Real-time analysis of engagement (kobs, IC50 vs time) in live cells, CDK6; details: real-time BRET, 25 °C; response to reviewers
T1 sequence (Q00534 whole entry): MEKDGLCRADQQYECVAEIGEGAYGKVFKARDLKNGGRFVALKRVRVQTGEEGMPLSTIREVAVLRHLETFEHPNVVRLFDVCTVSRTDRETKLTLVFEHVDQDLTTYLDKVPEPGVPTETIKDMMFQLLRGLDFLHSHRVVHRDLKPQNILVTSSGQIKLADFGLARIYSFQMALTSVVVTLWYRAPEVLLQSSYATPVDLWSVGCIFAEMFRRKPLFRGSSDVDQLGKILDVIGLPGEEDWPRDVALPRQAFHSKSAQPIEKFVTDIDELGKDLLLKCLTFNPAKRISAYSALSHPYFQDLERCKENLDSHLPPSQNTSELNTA
T1 sequence (P24385 whole entry partner): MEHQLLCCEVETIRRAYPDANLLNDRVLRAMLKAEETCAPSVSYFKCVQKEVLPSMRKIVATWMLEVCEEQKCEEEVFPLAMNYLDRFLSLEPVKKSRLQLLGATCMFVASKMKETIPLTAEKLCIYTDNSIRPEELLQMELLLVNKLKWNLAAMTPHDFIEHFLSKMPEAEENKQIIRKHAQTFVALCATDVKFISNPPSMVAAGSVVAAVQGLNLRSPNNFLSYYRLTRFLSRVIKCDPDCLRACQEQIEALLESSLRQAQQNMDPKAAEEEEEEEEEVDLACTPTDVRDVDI
Procedure: CDK2/Cyclin E1 complex was measured in the donor NanoBRET channel (using the standard 450 nm bandpass filter on the Glomax Discover plate reader). Ternary complex was measured in the presence […]
the acceptor NanoBRET channel (using the standard 600 nm longpass filter on the Glomax Discover plate reader). Total LgBiT expression level was determined in the presence of a saturating concentration […]
mg/mL digitonin (as a permeabilization agent). […]
respectively, at probe concentrations identical to those described for steady state analysis of target engagement. Cells were pre-equilibrated with energy transfer probe for 40 min prior to addition of […]
intervals at 25 °C (temperature reduced to avoid evaporation of cell culture medium). To quantify […]
vs time. Apparent association rate was also plotted as k obs vs [RGB286638], where kobs was determined using the one phase association equation (Supplementary Equation 2) in graphpad prism.
Y=Y0 + (Plateau-Y0)*(1-e-K*X) (2) where Y = mBRET ratio, X = time, and K = the observed rate constant ( kobs). Both analyses support […]
Generation of endogenously edited CDK-HiBiT cell lines and target engagement analysis at endogenous protein levels. HEK293 cells were edited to express HiBiT fused to the N -terminus of CDK9 or the C-terminus of CDK16, as described previously 3. For CDK9, the sequence of the guide RNA was […]

CDK6 [2] = biological target: T1, CDK6; test: Intracellular residence time by cellular washout, CDK6; details: Panel B;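 further: NanoBRET cellular washout in live cells: compound preincubated 2 h at 37 °C, then removed, energy transfer probe association tracked over time versus DMSO vehicle, rising BRET indicating target release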
CDK2 = CDK2 (Homo sapiens, UniProt P24941); test: Intracellular residence time by cellular washout, CDK2; details: for CDK2 occupancy after compound washout (%): Panel B;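 on all read-outs here: NanoBRET live-cell washout assay after 2 h compound pretreatment at 37 °C, rising energy-transfer probe signal tracks loss of CDK2 engagement, compared against DMSO vehicle cells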
[3] = Time (Min) 32.9743, listed as RGB-286638

## COCCN1CCN(Cc2ccc(-c3n[nH]c4c3C(=O)c3c(NC(=O)NN5CCOCC5)cccc3-4)cc2)CC1 [RGB286638]
CDK6 [1]
  CDK6 off rate from kobs values: > 300 min
CDK6 [2]; Time (Min) 0
  CDK6 occupancy (%) over time after compound washout: 82.1951 and 85.1351 and 80.5402
CDK6 [2]; Time (Min) 2.97013
  CDK6 occupancy (%) over time after compound washout: 79.5935 and 83.3333 and 77.8966
CDK6 [2]; Time (Min) 5.97045
  CDK6 occupancy (%) over time after compound washout: 77.3984 and 80.6306 and 74.3678
CDK6 [2]; Time (Min) 8.97078
  CDK6 occupancy (%) over time after compound washout: 75.7724 and 78.2883 and 76.8161
CDK6 [2]; Time (Min) 11.9714
  CDK6 occupancy (%) over time after compound washout: 73.9024 and 76.5766 and 70.3448
CDK6 [2]; Time (Min) 14.9718
  CDK6 occupancy (%) over time after compound washout: 72.7642 and 74.3243 and 69.1954
CDK6 [2]; Time (Min) 17.9723
  CDK6 occupancy (%) over time after compound washout: 71.5447 and 72.4324 and 67.4713
CDK6 [2]; Time (Min) 20.9723
  CDK6 occupancy (%) over time after compound washout: 70.4878 and 71.2613 and 68.046
CDK6 [2]; Time (Min) 23.9731
  CDK6 occupancy (%) over time after compound washout: 69.0244 and 70.3604 and 68.6207
CDK6 [2]; Time (Min) 26.9737
  CDK6 occupancy (%) over time after compound washout: 68.8618 and 68.5586 and 67.4713
CDK6 [2]; Time (Min) 29.9742
  CDK6 occupancy (%) over time after compound washout: 67.3171 and 67.8378 and 66.8966
CDK6 [2]; [3]
  CDK6 occupancy (%) over time after compound washout: 67.6423 and 66.9369 and 67.1264
CDK6 [2]; Time (Min) 35.9749
  CDK6 occupancy (%) over time after compound washout: 67.2358 and 66.5766 and 66.0919
CDK6 [2]; Time (Min) 38.9753
  CDK6 occupancy (%) over time after compound washout: 66.8293
CDK6 [2]; Time (Min) 236.996
  CDK6 occupancy (%) over time after compound washout: 66.1789 and 64.7748 and 56.7816
CDK6 [2]; Time (Min) 239.996
  CDK6 occupancy (%) over time after compound washout: 65.6911 and 64.3243 and 56.5517
CDK6 [2]; Time (Min) 242.996
  CDK6 occupancy (%) over time after compound washout: 66.4228 and 63.0631 and 56.3218
CDK6 [2]; Time (Min) 245.996
  CDK6 occupancy (%) over time after compound washout: 65.6911 and 63.5135 and 59.5402
CDK6 [2]; Time (Min) 248.996
  CDK6 occupancy (%) over time after compound washout: 65.6911 and 63.0631 and 59.5402
CDK6 [2]; Time (Min) 251.996
  CDK6 occupancy (%) over time after compound washout: 65.7724 and 63.1531 and 61.6092
CDK6 [2]; Time (Min) 254.996
  CDK6 occupancy (%) over time after compound washout: 65.8537 and 64.3243 and 54.7126
CDK6 [2]; Time (Min) 257.996
  CDK6 occupancy (%) over time after compound washout: 64.9594 and 63.3333 and 57.7011
CDK6 [2]; Time (Min) 260.996
  CDK6 occupancy (%) over time after compound washout: 65.1219 and 63.8739 and 51.954
CDK6 [2]; Time (Min) 263.996
  CDK6 occupancy (%) over time after compound washout: 63.9024 and 63.4234 and 57.1264
CDK6 [2]; Time (Min) 266.996, listed as RGB-286638
  CDK6 occupancy (%) over time after compound washout: 65.5285 and 63.1531 and 57.4713
CDK6 [2]; Time (Min) 269.996
  CDK6 occupancy (%) over time after compound washout: 64.7968 and 62.5225 and 59.6552
CDK6 [2]; Time (Min) 272.996
  CDK6 occupancy (%) over time after compound washout: 65.8537 and 62.5225 and 60.3448
CDK6 [2]; Time (Min) 275.996
  CDK6 occupancy (%) over time after compound washout: 64.3902 and 62.0721 and 53.3333
CDK6 [2]; Time (Min) 278.996
  CDK6 occupancy (%) over time after compound washout: 65.2032 and 62.6126 and 63.7931
CDK6 [2]; Time (Min) 281.996
  CDK6 occupancy (%) over time after compound washout: 64.8781 and 62.0721 and 57.7011
CDK6 [2]; Time (Min) 284.996
  CDK6 occupancy (%) over time after compound washout: 65.7724 and 63.3333 and 62.8736
CDK6 [2]; Time (Min) 287.996
  CDK6 occupancy (%) over time after compound washout: 63.5772 and 62.5225 and 61.3793
CDK6 [2]; Time (Min) 290.996
  CDK6 occupancy (%) over time after compound washout: 62.6016 and 62.5225 and 59.8851
CDK6 [2]; Time (Min) 293.996
  CDK6 occupancy (%) over time after compound washout: 64.5529 and 62.8829 and 61.8391
CDK2; Time (Min) 0
  CDK2 occupancy after compound washout (%): 86.242 and 90.073 and 94.3307
CDK2; Time (Min) 2.97013
  CDK2 occupancy after compound washout (%): 79.5117 and 80.9002 and 88.1102
CDK2; Time (Min) 5.97045
  CDK2 occupancy after compound washout (%): 73.673 and 73.2847 and 82.0472
CDK2; Time (Min) 8.97078
  CDK2 occupancy after compound washout (%): 68.5138 and 66.4964 and 75.5906
CDK2; Time (Min) 11.9714
  CDK2 occupancy after compound washout (%): 64.0977 and 61.0706 and 70.5249
CDK2; Time (Min) 14.9718
  CDK2 occupancy after compound washout (%): 59.9363 and 55.5961 and 65.5381
CDK2; Time (Min) 17.9723
  CDK2 occupancy after compound washout (%): 56.1571 and 50.7299 and 61.601
CDK2; Time (Min) 20.9723
  CDK2 occupancy after compound washout (%): 52.6752 and 47.2263 and 57.3753
CDK2; Time (Min) 23.9731
  CDK2 occupancy after compound washout (%): 49.9788 and 43.4307 and 53.9895
CDK2; Time (Min) 26.9737
  CDK2 occupancy after compound washout (%): 47.0913 and 40.219 and 51.2336
CDK2; Time (Min) 29.9742
  CDK2 occupancy after compound washout (%): 44.5011 and 36.91 and 47.9003
CDK2; [3]
  CDK2 occupancy after compound washout (%): 42.1444 and 34.1363 and 45.2756
CDK2; Time (Min) 35.9749
  CDK2 occupancy after compound washout (%): 39.724 and 31.4599 and 43.3596
CDK2; Time (Min) 38.9753
  CDK2 occupancy after compound washout (%): 37.5584 and 29.5864 and 40.3675
CDK2; Time (Min) 41.9753
  CDK2 occupancy after compound washout (%): 36.0722 and 27.129 and 39.4488
CDK2; Time (Min) 44.9758
  CDK2 occupancy after compound washout (%): 33.3121 and 25.1582 and 36.6667
CDK2; Time (Min) 47.9761
  CDK2 occupancy after compound washout (%): 31.6136 and 23.6253 and 35.2756
CDK2; Time (Min) 50.9766
  CDK2 occupancy after compound washout (%): 29.9788 and 21.8978 and 32.9134
CDK2; Time (Min) 53.9771
  CDK2 occupancy after compound washout (%): 27.983 and 20.1946 and 30.7874
CDK2; Time (Min) 56.9772
  CDK2 occupancy after compound washout (%): 27.3885 and 18.0049 and 30.0525
CDK2; Time (Min) 59.9777
  CDK2 occupancy after compound washout (%): 25.9023 and 17.2749 and 28.5564
CDK2; Time (Min) 62.9781
  CDK2 occupancy after compound washout (%): 24.4161 and 15.8151 and 27.3753
CDK2; Time (Min) 65.9785
  CDK2 occupancy after compound washout (%): 22.9299 and 14.3552 and 26.2992
CDK2; Time (Min) 68.9792
  CDK2 occupancy after compound washout (%): 21.4437 and 13.6253 and 25.1706
CDK2; Time (Min) 71.9792
  CDK2 occupancy after compound washout (%): 20.5945 and 12.1655 and 24.252
CDK2; live cells, probe 1 at 1 µM
  CDK2 occupancy after 2 h of analysis following compound washout: fully dissociated
